Data taken from PMC11171218, “N-Benzylated 5-Hydroxybenzothiophene-2-carboxamides as Multi-Targeted Clk/Dyrk Inhibitors and Potential Anticancer Agents” (Cancers, 2024).

Experiments:
[1] = Cell viability in normal cells, IEC-6; format: cell-based; conditions: rat, IEC-6 rat intestine epithelial cells (normal cells); for viability at 20 µM: mean (n = 3); for IC50: 50% inhibition
Experimental: (§1) All cells were purchased from Bioresource Collection and Research Center (Hsinchu, Taiwan) and cultured in corresponding media supplemented with 10% fetal bovine serum, 1 × Antibiotic-Antimycotic at 37 °C in a humidified incubator with 5% CO2. […] T24 cells were cultured in McCoy’s 5a media. IEC-6 cells were cultured in DMEM media supplemented with 5% fetal bovine serum, 1 × Antibiotic–Antimycotic, and 0.1 unit/mL insulin.
(§2) Cells were incubated with the Cell Counting Kit-8 (CCK-8) reagent (TargetMol, Boston, MA, USA) at 37 °C for 2 h. The cell viability was determined by spectrophotometer at 450 nm.

[2] = Cell viability in normal cells, HaCaT; format: cell-based; conditions: human, HaCaT normal human keratinocytes; for viability at 20 µM: mean (n = 3); for IC50: 50% inhibition
Experimental: as §1, §2

T24 cells [3] = assay: Cell cycle assay (PI staining, flow cytometry); format: cell-based, human; conditions: 30–50 µM, 24 h
Experimental: Cells were fixed with 75% ethanol and then stained with 50 μg/mL propidium iodide (PI; Cat# P4170, Sigma-Aldrich, St. Louis, MO, USA) at room temperature for 1 h. Cell cycle was analyzed by flow cytometry.
Figure 2 Analysis of cell cycle progression upon treatment with compounds 12 and 17. T24 cells were treated with DMSO (0.1%), 12 (30–50 µM), or 17 (30–50 µM) for 24 h. Cell cycle was examined by propidium iodide (PI) staining and flow cytometry. All data are expressed as the mean ± S.E.M. (n = 3).

T24 cells [4] = assay: Apoptosis assay (Annexin V-FITC/PI, flow cytometry); format: cell-based, human; conditions: 24 h
Experimental: Apoptosis was examined by Annexin V-FITC/PI Apoptosis Kit (Cat# E-CK-A211, Elabscience, Houston, TX, USA) following the manufacturer’s protocol and analyzed by flow cytometry.
Figure 3 Annexin V and PI staining in T24 cells to investigate if compounds 12 and 17 could induce apoptotic death. T24 cells were treated with DMSO (0.1%), 12 (30–50 µM), or 17 (30–50 µM) for 24 h and then stained with Annexin V-FITC antibody and PI. The Annexin V-positive apoptotic cells were monitored using flow cytometry. All data are expressed as the mean ± S.E.M. (n = 3). * p < 0.05, ** p < 0.01 compared with the DMSO group. […] Best reading, upper row: Q1-UL 0.1%, Q1-UR 4.5%, Q1-LL 84.7%, Q1-LR 10.7%. Lower row: Q1-UL 0.2%, Q1-UR 5.1%, Q1-LL 84.9%, Q1-LR 9.8%. They are left out of lines because no compound is present.

cleaved caspase-3 = assay: Western blot, cleaved caspase-3 in T24 cells; format: cell-based, human; conditions: 10–50 μM, 24 h
From the text: (§3) Cell lysates were sequentially suspended in commercial RIPA Buffer (pH 7.4; Cat# RB4475, Bio Basic, Markham, Ontario, Canada) containing Protease Inhibitor Cocktail and PhosSTOP (Merck, Darmstadt, Germany), boiled in sodium dodecyl sulphate (SDS) sample buffer, separated by SDS-polyacrylamide gel electrophoresis (PAGE), and electrophoresed onto a PVDF membrane. Antibodies used in this study were Bcl-2 (Cat#A19693, RRID: AB_2862738) and Bax (Cat# A0207, RRID: AB_2757021) from ABclonal (Boston, MA, USA); cleaved caspase-3 (Cat# 9662, RRID: AB_331439) and GAPDH (Cat# 8884, RRID:AB_11129865) from Cell Signaling Technology (Beverly, MA, USA). The labeled signals were determined using HRP-conjugated secondary antibodies and the Bio-rad ChemiDoc™ MP Imaging System (Berkeley, CA, USA).
(§4) Figure 4 Examining the effect of 12 and 17 on proapoptotic and antiapoptotic pathways. T24 cells were treated with DMSO (0.1%), 12 (30–50 µM), or 17 (30–50 µM) for 24 h. Expression levels of cleaved caspase-3, Bax, Bcl-2, and GAPDH were analyzed by Western blot by corresponding antibodies. The quantitation of the cleaved caspase-3/GAPDH, Bax/GAPDH, and Bcl-2/GAPDH ratio are shown. All data are expressed as the mean ± S.E.M. (n = 3). * p < 0.05, ** p < 0.01, *** p < 0.001 compared with the DMSO group.

Bax = assay: Western blot, Bax in T24 cells; format: cell-based, human; conditions: 10–50 μM, 24 h
From the text: as §3, §4

Bcl-2 = assay: Western blot, Bcl-2 in T24 cells; format: cell-based, human; conditions: for Decrease in the antiapoptotic marker Bcl-2: 50 μM; for Expression of antiapoptotic protein Bcl-2: 10–50 μM, 24 h, Western blot
From the text: as §3, §4

SMILES | viability at 20 µM [1] | IC50 [1] | viability at 20 µM [2] | IC50 [2] | Effect on cell cycle progression (T24 cells [3]) | Apoptotic cell population (Annexin V-positive) (T24 cells [4]; 50 µM) | Level of cleaved caspase-3 (cleaved caspase-3) | Level of Bax (Bax) | Decrease in the antiapoptotic marker Bcl-2 (Bcl-2) | Expression of antiapoptotic protein Bcl-2 (Bcl-2) | Apoptotic cell population (Annexin V-positive) (T24 cells [4]; 30 and 50 μM)
COc1cccc(CNC(=O)c2cc3cc(O)ccc3s2)c1 [Compound 12, 5-Hydroxy-N-(3-methoxybenzyl)benzo[b]thiophene-2-carboxamide] | 96% | > 20 µM | 67.6% | > 20 µM | much weaker than those of compound 17 | increased the apoptotic cell population | increased the proapoptotic levels of cleaved caspase-3 and Bax | increased the proapoptotic levels of cleaved caspase-3 and Bax | approximately 0.5 fold | decreased the expression of the antiapoptotic protein, Bcl-2 | 
O=C(NCc1cc(F)cc(F)c1)c1cc2cc(O)ccc2s1 [Compound 17, N-(3,5-Difluorobenzyl)-5-hydroxybenzo[b]thiophene-2-carboxamide] | 76.8% | > 20 µM | 64.9% | > 20 µM | retain the cells in the G2/M phase |  | increased the proapoptotic levels of cleaved caspase-3 and Bax | increased the proapoptotic levels of cleaved caspase-3 and Bax | approximately 0.5 fold | decreased the expression of the antiapoptotic protein, Bcl-2 | dose-dependently increased the apoptotic cell population
